Test [1] addresses T1, human MCHR1 (Homo sapiens, UniProt Q99705).
T1 construct: expressed in transfected cells; host or cells: CHO cell clone 57 (membrane fraction)
Description: MCH receptor 1 antagonistic activity, Ca2+ mobilization assay in human MCHR1-expressing CHO cells (clone #4). The class given is cell-based. The note with it: test compound 0.1 μM, ligand MCH(4-19) 2 nM, read-out: Inhibition rate % (0.1 μM). The protocol:
Measurement of MCH Receptor 1 Antagonistic Activity of Test Compound Using Ca^2+ Mobilization Assay
Using an expression vector plasmid introduced with human MCHR1 gene for expression in animal cells, human MCHR1 gene was introduced into CHO cells (CHO dhfr^−) by Lipofectamine LTX (Invitrogen). The cells were cultured in selection MEMα medium [445 mL of MEMα medium without nucleic acid and added with 5 mL of Penicillin-Streptomycin (Invitrogen) and 50 mL of dialyzed fetal bovine serum]. Colony 24 clones grown in the selection medium, which were human MCHR1 gene-expressing CHO cell candidates, were selected. […] In the following test, this human MCHR1-expressing CHO cell (clone #4) was used. An integrated dispensing function fluorometer (CellLux, PerkinElmer) was used for Ca^2+ mobilization assay. The CHO cells were sown in a 96 well plate (type 3904, Corning) with a black wall and clear well bottom at a density of 20000 cells/well, and cultured in an incubator for about 24 hr at 5% CO2, 37° C. The medium was removed, and the cells were washed with phosphate buffered saline (PBS). A Ca^2+ indicator dye reagent (DOJINDO LABORATORIES, Ca screening no-wash kit Fluo4) was added at 100 μL/well, and the dye was allowed to penetrate into the cell for 30 min in an incubator at 5% CO2, 37° C. The plate was set on a plate reader. First, a test compound solution diluted with an assay buffer [10 mM HEPES (pH 7.4), 1× assay buffer containing 0.1% BSA (DOJINDO LABORATORIES, attached to Ca screening no-wash kit Fluo4)] or DMSO solution was added at 50 μL/well, and then ligand MCH (4-19) peptide (final concentration 2 nM) diluted with assay buffer or DMSO was added at 50 μL/well, during which changes in intracellular fluorescence were measured at 2 second intervals. […]
The inhibition rates (%) of test compounds (0.1 μM) as antagonist activity measured using human MCHR1-expressing CHO cells (clone #4) are shown in the following Table 3.
Background: A change in cytosolic calcium serves as a functional read-out for many receptors and channels.

Test [2] has as its target T1, human MCHR1. Description: Human MCH receptor 1 (MCHR1) binding inhibitory activity, [125I]-MCH(4-19) binding assay with MCHR1-expressing CHO cellular membrane fraction. The note with it: test compound 0.1 μM, human MCHR1-expressing CHO cell membrane, read-out: Binding inhibition rate % (0.1 μM). As to the method: Using human MCHR1(=SLC-1 receptor)-expressing CHO cell clone 57 described in WO01/82925, MCHR1-expressing CHO cellular membrane fractions were prepared by the following method. […] Homogenate buffer (10 mL, 10 mM NaHCO3, 5 mM EDTA, pH 7.5, 0.5 mM PMSF (phenylmethylsulfonyl fluoride), 20 mg/L leupeptin, 4 mg/L E-64, 1 mg/L pepstatin A) was added to the pellets of the cells and, using Polytron Homogenizer, the mixture was homogenated. The supernatant obtained after centrifugation at 400×g for 10 min was further centrifuged at 100,000×g for 1 hr to give precipitate of the membrane fraction. The precipitate were suspended in 2 mL of assay buffer [20 mM Tris-HCl (pH 7.5), 5 mM EDTA, 0.5 mM PMSF, 20 mg/L leupeptin, 4 mg/L E-64, 1 mg/L pepstatin A]. The membrane fractions were suspended in assay buffer to a protein concentration of 2 mg/mL, and after dispensing, preserved at −80° C. and used upon thawing each time when in use. The MCHR1 ligand binding inhibitory activity of the test compound was determined as follows. An MCHR1-expressing CHO cellular membrane fraction (173 μL) diluted with an assay buffer was dispensed to a 96 well polypropylene plate (3363, Corning). […] Using a treating glass filter plate (GF/C, PerkinElmer) with polyethyleneimine, which had been previously set, the plate was suction-filtered and washed three times with washing buffer (50 mM Tris-HCl buffer pH 7.5). The glass filter plate was dried, MicroScinti0 (PerkinElmer) was added at 25 μL/well, and the resulting radioactivity was measured by TopCount liquid scintillation counter (PerkinElmer). The binding inhibition rate of the test compound was calculated by the following formula.

The structures appear in SMILES notation.

T1 sequence (Q99705 whole entry): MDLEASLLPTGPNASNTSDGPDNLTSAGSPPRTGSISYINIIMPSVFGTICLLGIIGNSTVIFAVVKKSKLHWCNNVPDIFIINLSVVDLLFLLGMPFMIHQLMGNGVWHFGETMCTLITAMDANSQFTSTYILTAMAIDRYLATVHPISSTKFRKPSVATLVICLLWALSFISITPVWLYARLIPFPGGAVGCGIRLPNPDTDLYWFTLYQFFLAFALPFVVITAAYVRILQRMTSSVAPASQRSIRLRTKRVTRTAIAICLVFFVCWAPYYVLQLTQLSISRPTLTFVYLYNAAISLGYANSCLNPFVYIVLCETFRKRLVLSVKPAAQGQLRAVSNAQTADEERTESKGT

One may read the inhibition as how much of the control response was suppressed. Regarding `Cn1c(C2CC2)nc2ccc(-n3ccc4oc(-c5ccc(Cl)cc5)cc4c3=O)cc21` [Example 2, 2-(4-Chlorophenyl)-5-(2-cyclopropyl-1-methyl-1H-benzimidazol-6-yl)furo[3,2-c]pyridin-4(5H)-one], the inhibition at 0.1 µM at human MCHR1 [1] is 70%; on human MCHR1 [2], 79%.
Turning to `Cc1c(C2CC2)nc2ccc(-n3ccc4oc(-c5ccc(Cl)cn5)cc4c3=O)cn12` [Example 3, 2-(5-Chloropyridin-2-yl)-5-(2-cyclopropyl-3-methylimidazo[1,2-a]pyridin-6-yl)furo[3,2-c]pyridin-4(5H)-one], the inhibition at 0.1 µM on human MCHR1 [1] is 92%; on human MCHR1 [2], 74%.
Consider `Cn1c([C@H]2C[C@H]2C(C)(C)O)nc2ccc(-n3ccc4oc(-c5ccc(Cl)cc5)cc4c3=O)cc21` (racemic) [Example 4, 2-(4-Chlorophenyl)-5-(2-((1RS,2SR)-2-(2-hydroxypropan-2-yl)cyclopropyl)-1-methyl-1H-benzimidazol-6-yl)furo[3,2-c]pyridin-4(5H)-one], for which the inhibition at 0.1 µM on human MCHR1 [2] is 91%.
For the compound `Cc1c(C2CC2)nc2ccc(-n3ccc4oc(-c5ccc(Cl)cc5)cc4c3=O)cn12` [Example 1, 2-(4-Chlorophenyl)-5-(2-cyclopropyl-3-methylimidazo[1,2-a]pyridin-6-yl)furo[3,2-c]pyridin-4(5H)-one], the inhibition at 0.1 µM on human MCHR1 [1] was determined as 82%; at human MCHR1 [2], 100%.

The values are drawn from patent publication US9440987B2, “Aromatic ring compound” (TAKEDA PHARMACEUTICAL COMPANY LIMITED, priority 2012, dated 2016).
